Earlier results as cited in patent EP0268927A2, “Resin-coated, non-sorptive granular, pesticidal compositions and method for the preparation thereof” (priority 1986, dated 1988).

System: rats
Details: technical grade

In the case of `CCOP(=S)(OCC)SCSCC` [phorate, 0,0-diethyl-S-(ethylthiomethyl)phosphorodithioate], the “acute oral LD50 value in rats” value is given as 1.6-3.7 mg technical/kg.
